# Test results taken from US20230391727A1, “ANALOGUES OF PENTAMIDINE AND METHODS FOR TREATING INFECTIONS” (Auransa Inc., priority 2020, published 2023).
# Read-outs that look alike come from different tables or passages of the source.
# How the values were obtained:
# NCI H69 cells = experiment: CellTiter-Glo cell viability assay (cytotoxicity), 8 days; type: cell-based; conditions: Homo sapiens, 192 h, full growth media
# Procedure: The experiment tested pentamidine, Compounds 1-6 in full growth media for 8 days. NCI H69 cells were initially treated with the test compounds on Day 0, and the cells were then replenished with fresh compound dilutions on Day 3. Pentamidine and Compound 1 were tested at 9 concentration points: 100 μM, 33.33 μM, 11.11 μM, 3.70 μM, 1.23 μM, […], 0.05 μM, and 0.02 μM (final DMSO concentration=0.5%). The raw data values from the CellTiter-Glo™ cell viability assay expressed in relative luminescence units were normalized to the vehicle for each individual plate, and any reduction in luminescence indicated a decrease in viability (%). The data was analyzed in GraphPad PRISM using a non-linear sigmoidal plot with variable slope (asymmetric four-point […]), and an IC50 value for each compound was generated based on the normalized dose-response curves and shown in Table 1.
# A. baumannii ATCC 17978 = experiment: Checkerboard assay with novobiocin (FIGS. 2, 3, 5, 6); type: cell-based, Acinetobacter baumannii
# Text: Novobiocin is an anti-staphylococcal drug, but with limited use. The oral form of novobiocin drug has since been withdrawn from the market due to lack of efficacy. This antibiotic is often used to treat Staphylococcus aureus infection, particularly methicillin resistant S. aureus “MRSA”.
# K. pneumoniae ATCC 43816 = experiment: Checkerboard assay with rifampicin (FIG. 4); type: cell-based, Klebsiella pneumoniae; conditions: K. pneumoniae ATCC 43816, FIG. 4
# S. aureus VRS-2 = S. aureus VRS-2 peritonitis infection model; type: in vivo, female ICR mice; conditions: 50 mg/kg PO QD, 1 h post-infection, p<0.05
# Procedure: The efficacy of compound 3 was evaluated in the S. aureus VRS-2 peritonitis infection model. The test article, compound 3 at 0.1, 0.3 and 1 mg/kg, was intraperitoneally (IP) administered twice at 2 and 16 h after infection; as well as once at 2 mg/kg at 2 h post-infection. The control reference agent, linezolid at 50 mg/kg, was orally (PO) administered once at 1 h post-infection. […] All animals in the vehicle group succumbed to infection between Day 1 to Day 2, resulting in 100% mortality, and a mean 15 h survival time. […] In the compound 3 at 1 mg/kg IP BID dose group, one out of eight animals survived till Day 7 of the study period, resulting in 13% survival rate, and a mean 33 h survival time.
# For efficacy testing, the 0.4 mg/mL compound 3 solution was prepared by dissolving 1.21 mg of compound 3, corresponding to active ingredient of 1.02 mg with a correction factor of 1.19, in 2.55 mL of WFI. The 0.4 mg/mL compound 3 working solution was further diluted with WFI to generate three lower dosing solutions of 0.2, 0.06 and 0.02 mg/mL. All dosing solutions were soluble and colorless.
# PDS supplied vancomycin and linezolid as reference controls for both MIC and in vivo studies. […] The 3.2 mg/mL linezolid 50× stock solution was prepared by dissolving 1.0 mg of linezolid in 0.313 mL of DMSO. Both solutions were colorless and soluble. For efficacy testing, one tablet of linezolid, at 600 mg, was dissolved in 12 mL of 1% Tween 80 in saline (0.9% NaCl) to generate a 50 mg/mL of stock solution. The 50 mg/mL linezolid stock solution was further diluted with 1% Tween 80 in 0.9% NaCl to generate the dosing solution of 5 mg/mL. Both solutions were insoluble with white color.
# The S. aureus strain VRS-2 peritonitis infection model was performed with immunocompetent female ICR mice, weighing 22±2 g. All animals were specific pathogen free. The PDS standard protocol for preparing S. aureus cultures for mouse infection studies was followed. A 0.2 mL aliquot of a single-use glycerol stock (at −80° C.) was used to seed […] heart infusion (BHI) and then incubated at 35-37° C. with shaking (250 rpm) for 8 h. Bacterial cells in the 20 mL was pelleted by centrifugation (3,500×g) for 15 minutes, and then re-suspended in 10 mL cold phosphate buffer saline (PBS). The optical density, OD620 nm, was measured and used to guide dilution. The PBS suspensions were stored on ice for no more than 1 h prior to animal inoculation. The dilutions were performed by 1:1 dilution of BHI broth containing hog gastric mucin to obtain the target inoculum density, 1×10^8 CFU/mouse, per 0.5 mL with 5% mucin (final concentration). The actual colony count was determined by plating dilutions to nutrient agar (NA) plates followed by 20-24 h incubation at 35-37° C.
# On Day 0, animals were infected with bacterial suspension with 5% mucin by intraperitoneal injection. The actual inoculum was 1.93×10^8 CFU/mouse with a target inoculum of 1×10^8 CFU/mouse in the peritonitis infection model. Test article, compound 3, was formulated in WFI and intraperitoneally (IP) administered with the dose schedule and concentrations indicated in the study design. Doses were administered once at 2 h post-infection or twice (BID) at 2 and 16 h post-infection. The animals were monitored for survival up to 7 days, twice daily (AM 9:00/PM 17:00). […]
# Animals were monitored for mortality twice daily (AM 9:00/PM 17:00) for 7 days after infection. […]
# S. aureus ATCC 43300 = experiment: MIC assay against gram positive S. aureus; type: cell-based; conditions: Staphylococcus aureus, ATCC43300
# Procedure: (§1) Then the compound stocks were serially 2-fold diluted in a v-bottom 96-well plate to make 100-fold working solutions. One day before the test, −80° C. glycerol stock of S. aureus strains were streaked on cation-adjusted Mueller-Hinton agar (CAMHA) plates. On the day of test, fresh bacterial colonies were suspended into sterile saline to an OD600 nm of ˜0.1 (equivalent to 0.5 McFarland). The bacterial suspension was firstly 20-fold followed by 50-fold diluted in cation-adjusted Mueller-Hinton broth (CAMHB) plates to 1×10^6 CFU/PO. 198 ul of the inoculum was added into the round-bottom 96-well plates prefilled with 2 ul of 100-fold compound working solutions. After incubating at 35 +/−2° C. in ambient atmosphere for 18-24 h, MIC was recorded as the lowest concentration under which no visible bacterial growth was observed.
# S. aureus ATCC 27660 = experiment: MIC assay against gram positive S. aureus; type: cell-based; conditions: Staphylococcus aureus, ATCC27660
# Procedure: as §1
# [1] = system: Staphylococcus aureus VRS-2 (VRSA); experiment: MIC assay against gram positive and antibiotic-resistant S. aureus; type: cell-based; conditions: Staphylococcus aureus VRS-2, VRSA; read-out: MIC
# Procedure: (§2) The MICs of vancomycin and linezolid were determined as quality controls and the MIC values of each strain met the acceptance criteria based on PDS historical reference data.
# (§3) The direct colony suspension method was used to prepare inoculated broth. Isolated colonies were taken from an 18-24 h culture plate. Optical density measurements (OD620 nm) were used to estimate the bacterial density. The test article, compound 3, and reference control stock solutions were prepared in 100% DMSO as 50× stock solutions. The 50× stock solutions were diluted by 2-fold serial titrations with 100% DMSO for a total of 11 concentrations. A 4 μL aliquot of each dilution was added to 196 μL of cation-adjusted Mueller Hinton Broth II medium seeded with the organism in wells of a 96 well plate. The final vehicle concentration was two percent (2%) in all assay wells. The final bacterial count was 2 to 8×10^5 CFU/mL. The final compound 3 concentration range was 16 to 0.016 μg/mL. Each test substance dilution was evaluated in duplicate on one test occasion. Vehicle-control and reference controls were used as blank and positive controls, respectively. Plates were incubated at 35-37° C. for 18 h. The test plates were visually examined and each well was visually scored for growth or complete inhibition of growth. The MIC value was recorded.
# [2] = system: Staphylococcus aureus ATCC 33591 (MRSA); experiment: as above; type: cell-based; conditions: Staphylococcus aureus ATCC 33591, MRSA; read-out: MIC
# Procedure: as §2, §3
# [3] = system: Staphylococcus aureus BAA-1556 (MRSA); experiment: as above; type: cell-based; conditions: Staphylococcus aureus BAA-1556, MRSA; read-out: MIC
# Procedure: as §2, §3
# [4] = system: Staphylococcus aureus ATCC 19636; experiment: as above; type: cell-based; conditions: ATCC19636; Staphylococcus aureus ATCC 19636; read-out: MIC
# Procedure: as §2, §3
# [5] = system: Blastomyces dermatitidis BD2; experiment: Anti-fungal MIC assay; type: cell-based
# Procedure: (§4) The first round of testing included Candida parapsilosis, Candida krusei, Paecilomyces variotii, Candida albicans, Aspergillus fumigatus, and Blastomyces dermatitidis. […] The second round of testing included Candida parapsilosis, Candida krusei, Candida albicans, Candida auris, Candida glabrata, Candida guilliermondii, and Cryptococcus neoformans.
# (§5) Stock solutions of the investigational agent were prepared at concentrations 100-times the highest concentration to be tested (6400 μg/ml) using dimethyl sulfoxide. Aliquots of the stock solutions were dispensed into polystyrene vials and stored at −20° C.
# (§6) The synthetic medium RPMI-1640 (with glutamine, without bicarbonate, and with phenol red) was used. The RPMI was buffered to a pH of 7.0+0.1 at 25° C. with 0.165M MOPS (3-[N-morpholino] propanesulfonic acid). Sterile U-shaped 96-well cell culture plates were used to perform the MIC assays. Dilutions of the DMSO stocks were prepared in RPMI to achieve 2× concentrations. After the dilutions of the working 2× investigational antifungal solutions were prepared, 0.1 ml of each concentration was transferred into a pre-specified column of the U-shaped 96-well cell culture plate using sterile pipettes.
# (§7) Fungal isolates were grown on Sabouraud dextrose agar (yeasts) or potato flake agar (filamentous fungi) and cells were collected after an appropriate period of growth for each species being evaluated (e.g., 48-72 hours for yeasts and 7 days for filamentous fungi). The fungi were suspended in sterile distilled water, and the densities of the fungal suspension were read using a spectrophotometer and adjusted to an appropriate optical density specific for each fungal species. The fungal suspension of each isolate was then diluted in RPMI. A sufficient volume of the test inoculum was prepared to directly inoculate 0.1 ml into each test well of the 96-well cell culture plate. Final inoculum ranges were dependent on the fungal species to be tested (e.g., 0.4×103 to 5×10^3 cells/ml for yeasts and dimorphic fungi, and 0.4×104 to 5×10^4 cells/ml for filamentous fungi). Each well of the 96-well cell culture plate containing the investigational antifungal compounds (0.1 ml volume) was inoculated on the day of the assay with 0.1 ml of the fungal suspension. Growth control wells contained 0.1 ml of fungal suspension and 0.1 ml of the growth medium without antifungal agents. The media control well contained 0.2 ml of the growth medium.
# (§8) The microdilution trays were incubated at 35° C. without agitation. […] One positive comparator/control was used for yeast (fluconazole) and one was used for filamentous fungi (voriconazole).
# [6] = system: Aspergillus fumigatus AF293; experiment: Anti-fungal MIC assay; type: cell-based; conditions: read-out: MIC, 50% growth inhibition
# Procedure: as §4, §5, §6, §7, §8
# [7] = system: Blastomyces dermatitidis BD1; experiment: Anti-fungal MIC assay; type: cell-based
# Procedure: as §4, §5, §6, §7, §8
# [8] = system: Aspergillus fumigatus AF2; experiment: Anti-fungal MIC assay; type: cell-based
# Procedure: as §4, §5, §6, §7, §8
# [9] = system: Aspergillus fumigatus AF3; experiment: Anti-fungal MIC assay; type: cell-based
# Procedure: as §4, §5, §6, §7, §8
# [10] = system: Blastomyces dermatitidis BD3; experiment: Anti-fungal MIC assay; type: cell-based
# Procedure: as §4, §5, §6, §7, §8
# Candida krusei ATCC6258 = experiment: Anti-fungal MIC assay; type: cell-based; conditions: Pichia kudriavzevii, first round (Table 5)
# Procedure: as §4, §5, §6, §7, §8
# [11] = read-out: MIC, 50% growth inhibition
# [12] = read-out: MIC, 100% growth inhibition
structure (smiles),measurement,setting,value
"N=C(N)c1cccc(CCCCCCCc2cccc(C3CCNC3)c2)c1 (centres unmarked) [Compound 2, 3-(7-(3-(pyrrolidin-3-yl)phenyl)heptyl)benzimidamide]",IC50,NCI H69 cells,1.5 µM
same,synergistic effect with novobiocin,A. baumannii ATCC 17978,clear synergistic effects
same,synergy with novobiocin as compared to pentamidine with novobiocin,A. baumannii ATCC 17978,superior synergy
same,MIC,"A. baumannii ATCC 17978; Acinetobacter baumannii, ATCC17978, substance alone",138 µM
same,synergy with rifampicin,K. pneumoniae ATCC 43816,increased level of synergy
"CC(=O)NC[C@H]1CN(c2ccc(N3CCOCC3)c(F)c2)C(=O)O1 [Linezolid, reference compound]",survival rate,S. aureus VRS-2,100%
same,mean survival time,S. aureus VRS-2; maximum set at 180 h,180 h
same,MIC,S. aureus ATCC 43300,4 µg/mL
same,MIC,S. aureus ATCC 27660,4 µg/mL
same,MIC,[1],4 µg/mL
same,MIC,[2],2 µg/mL
same,MIC,[3],2 µg/mL
same,MIC,[4],4 µg/mL
"C[C@@H](c1ncncc1F)[C@](O)(Cn1cncn1)c1ccc(F)cc1F [Voricolazole, voriconazole, reference compound]",MIC,[5]; [11],≤ 0.03 µg/mL
same,MIC,[5]; [12],0.125 µg/mL
same,MIC,[6],0.25 µg/mL
same,MIC,[7]; [11],≤ 0.03 µg/mL
same,MIC,[7]; [12],0.06 µg/mL
same,MIC,[8]; [11],> 16 µg/mL
same,MIC,[8]; [12],> 16 µg/mL
same,MIC,[9]; [11],2 µg/mL
same,MIC,[9]; [12],4 µg/mL
same,MIC,[10]; [11],≤ 0.03 µg/mL
same,MIC,[10]; [12],0.125 µg/mL
same,MIC,"Candida krusei ATCC6258; ATCC6258, Candida krusei ATCC6258, read-out: MIC, 50% growth inhibition",≤ 0.03 µg/mL
same,MIC,"Candida krusei ATCC6258; ATCC6258, read-out: MIC, 100% growth inhibition, Candida krusei ATCC6258",0.125 µg/mL
